From ChEMBL document CHEMBL3865829 (Eur J Med Chem, 2016)

Legend:
[1] = cells; conditions: Homo sapiens, HCT-116, 72 h
[2] = Cytotoxicity against human A549 cells after 72 hrs by MTT assay; type: functional, cell-based; conditions: A549, 72 h
[3] = Cytotoxicity against human HepG2 cells after 72 hrs by MTT assay; type: functional, cell-based; conditions: HepG2, 72 h
[4] = Cytotoxicity against human MDA-MB-231 cells after 72 hrs by MTT assay; type: functional, cell-based; conditions: MDA-MB-231, 72 h
[5] = Cytotoxicity against human U87MG cells after 72 hrs by MTT assay; type: functional, cell-based, U-87MG ATCC; conditions: U-87 MG
[6] = Cytotoxicity against human NCI60 cells after 48 hrs by SRB assay; type: functional; conditions: NCI60, 48 h
[7] = molecular target: Phosphatidylinositol 4,5-bisphosphate 3-kinase catalytic subunit alpha isoform (Homo sapiens, UniProt P42336); assay: Inhibition of PI3Kalpha (unknown origin) using PIP2 as substrate after 1 hr in presence of ATP by kinase-glo luminescence assay
Chain of Phosphatidylinositol 4,5-bisphosphate 3-kinase catalytic subunit alpha isoform (P42336 whole entry, canonical isoform): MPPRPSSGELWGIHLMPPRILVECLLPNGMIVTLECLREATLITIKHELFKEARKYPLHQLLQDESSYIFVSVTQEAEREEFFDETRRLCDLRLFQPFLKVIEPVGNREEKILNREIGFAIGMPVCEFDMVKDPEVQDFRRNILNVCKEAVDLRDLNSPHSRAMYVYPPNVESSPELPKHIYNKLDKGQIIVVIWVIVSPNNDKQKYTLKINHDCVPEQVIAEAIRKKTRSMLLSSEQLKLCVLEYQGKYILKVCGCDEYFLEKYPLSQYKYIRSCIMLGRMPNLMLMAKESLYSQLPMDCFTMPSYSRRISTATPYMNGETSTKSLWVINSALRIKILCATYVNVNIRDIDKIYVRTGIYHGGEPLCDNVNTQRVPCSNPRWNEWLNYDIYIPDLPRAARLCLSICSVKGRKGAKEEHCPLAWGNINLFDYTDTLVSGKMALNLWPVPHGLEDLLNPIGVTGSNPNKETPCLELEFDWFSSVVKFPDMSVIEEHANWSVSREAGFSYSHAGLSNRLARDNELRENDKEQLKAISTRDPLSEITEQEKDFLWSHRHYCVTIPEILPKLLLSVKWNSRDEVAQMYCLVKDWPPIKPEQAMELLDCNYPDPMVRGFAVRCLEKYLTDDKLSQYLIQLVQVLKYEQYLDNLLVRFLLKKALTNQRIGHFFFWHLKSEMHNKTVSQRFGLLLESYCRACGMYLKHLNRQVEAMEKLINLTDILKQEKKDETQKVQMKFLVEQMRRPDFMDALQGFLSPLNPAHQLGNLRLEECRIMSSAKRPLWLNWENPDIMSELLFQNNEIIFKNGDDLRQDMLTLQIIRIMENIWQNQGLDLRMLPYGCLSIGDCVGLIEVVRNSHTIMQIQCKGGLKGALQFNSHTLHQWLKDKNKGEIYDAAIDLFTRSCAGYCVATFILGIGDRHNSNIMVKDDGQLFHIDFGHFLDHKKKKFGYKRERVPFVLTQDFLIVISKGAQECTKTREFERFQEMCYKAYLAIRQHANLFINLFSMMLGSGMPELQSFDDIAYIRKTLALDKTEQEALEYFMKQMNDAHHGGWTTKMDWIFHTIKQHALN

[8] = system: HCT-116; assay: Potency index, ratio of GSK2126458 IC50 to compound IC50 for human HCT116 cells; type: functional

Row | Structure (SMILES) | IC50 [1] | IC50 [7] | IC50 [2] | IC50 [3] | IC50 [4] | IC50 [5] | GI50 [6] | Ratio IC50 [8]
1 | O=S(=O)(Nc1cc(-c2ccc3nccc(-c4ccc(Cn5cncn5)cc4)c3c2)cnc1Cl)c1ccc(F)cc1F | 36 nM | – | 642 nM | 2040 nM | 340 nM | – | – | –
2 | CC(=O)O[C@H]1C(=O)[C@@]2(C)[C@H]([C@H](OC(=O)c3ccccc3)[C@]3(O)C[C@H](OC(=O)[C@H](O)[C@@H](NC(=O)c4ccccc4)c4ccccc4)C(C)=C1C3(C)C)[C@]1(OC(C)=O)CO[C@@H]1C[C@@H]2O [PACLITAXEL] | – | – | – | – | – | – | 31.5 nM | –
3 | O=S(=O)(Nc1cc(-c2ccc3nccc(-c4ccc(Cn5cncn5)cc4)c3c2)cnc1Cl)c1ccc(F)cc1 | 33 nM | – | 178 nM | 9600 nM | 228 nM | – | – | –
4 | COc1ncc(-c2ccc3nccc(-c4ccc(CN(C)CCN(C)C)cc4)c3c2)cc1NS(=O)(=O)c1ccc(F)cc1F | – | 2.5 nM | 13 nM | – | – | 254 nM | – | –
5 | COc1ncc(-c2ccc3nccc(N4CCCC4)c3c2)cc1NS(=O)(=O)c1ccc(F)cc1F | 3320 nM | – | 3410 nM | – | – | 6690 nM | – | –
6 | O=S(=O)(Nc1cc(-c2ccc3nccc(-c4ccc(CN5CCOCC5)cc4)c3c2)cnc1Cl)c1ccc(F)cc1 | 41 nM | – | 53 nM | 7740 nM | 2580 nM | – | – | –
7 | CN(C)Cc1ccc(-c2ccnc3ccc(-c4cnc(Cl)c(NS(=O)(=O)c5ccc(F)cc5F)c4)cc23)cc1 | 24 nM | – | 251 nM | 3860 nM | 53 nM | – | – | –
8 | COc1ncc(-c2ccc3nccc(N4CCOCC4)c3c2)cc1NS(=O)(=O)c1ccc(F)cc1F | 4430 nM | – | 2400 nM | – | – | > 100000 nM | – | –
9 | CN(CCO)Cc1ccc(-c2ccnc3ccc(-c4cnc(Cl)c(NS(=O)(=O)c5ccc(F)cc5F)c4)cc23)cc1 | 41 nM | – | 121 nM | 2880 nM | 337 nM | – | – | –
10 | CC[C@@]1(O)C(=O)OCc2c1cc1n(c2=O)Cc2cc3ccccc3nc2-1 [CAMPTOTHECIN] | – | – | – | – | – | – | 39.8 nM | –
11 | COc1ncc(-c2ccc3nccc(-c4ccc(CN(C)CCO)cc4)c3c2)cc1NS(=O)(=O)c1ccc(F)cc1 | 25 nM | – | 22 nM | 1850 nM | 210 nM | – | – | –
12 | COc1ncc(-c2ccc3nccc(-c4ccc(CN5CCOCC5)cc4)c3c2)cc1NS(=O)(=O)c1ccc(F)cc1 | 30 nM | – | 17 nM | 27200 nM | 1970 nM | – | – | –
13 | COc1ncc(-c2ccc3nccc(-c4ccc(Cn5cncn5)cc4)c3c2)cc1NS(=O)(=O)c1ccc(F)cc1 | 26 nM | – | 33 nM | 12700 nM | 283 nM | – | – | –
14 | COc1ncc(-c2ccc3nccc(-c4ccc(CN(CCO)CCO)cc4)c3c2)cc1NS(=O)(=O)c1ccc(F)cc1F | 3.8 nM | – | 2.8 nM | – | – | 143 nM | – | –
15 | COc1ncc(-c2ccc3nccc(-c4ccc(CN(C)C)cc4)c3c2)cc1NS(=O)(=O)c1ccc(F)cc1 | 24 nM | – | 25 nM | 3020 nM | 350 nM | – | – | –
16 | COc1ncc(-c2ccc3nccc(Cl)c3c2)cc1NS(=O)(=O)c1ccc(F)cc1F | 6590 nM | – | 2940 nM | – | – | > 100000 nM | – | –
17 | CN(CCO)Cc1ccc(-c2ccnc3ccc(-c4cnc(Cl)c(NS(=O)(=O)c5ccc(F)cc5)c4)cc23)cc1 | 24 nM | – | 15 nM | 1910 nM | 260 nM | – | – | –
18 | CCN(Cc1ccc(-c2ccnc3ccc(-c4cnc(OC)c(NS(=O)(=O)c5ccc(F)cc5F)c4)cc23)cc1)C1CCCCC1 | 222 nM | – | 20.2 nM | – | – | 1450 nM | – | –

More lines, main results first:

Row | IC50 [1] | IC50 [7] | Structure (SMILES) | IC50 [2] | IC50 [3] | IC50 [4] | IC50 [5] | GI50 [6] | Ratio IC50 [8]
19 | 53.1 nM | – | COc1ncc(-c2ccc3nccc(-c4ccc(Cn5cccn5)cc4)c3c2)cc1NS(=O)(=O)c1ccc(F)cc1F | 30.8 nM | – | – | 1600 nM | – | –
20 | 24.7 nM | – | COc1ncc(-c2ccc3nccc(-c4ccc(CN5CCN(C(C)C)CC5)cc4)c3c2)cc1NS(=O)(=O)c1ccc(F)cc1F | 1.9 nM | – | – | 468 nM | – | –
21 | 32.6 nM | – | COc1ncc(-c2ccc3nccc(-c4ccc(Cn5ccnc5)cc4)c3c2)cc1NS(=O)(=O)c1ccc(F)cc1F | 30.8 nM | – | – | 600 nM | – | –
22 | 18.8 nM | – | COc1ncc(-c2ccc3nccc(-c4ccc(CN5CCCC5)cc4)c3c2)cc1NS(=O)(=O)c1ccc(F)cc1F | 37.5 nM | – | – | 159 nM | – | –
23 | 21.7 nM | – | COc1ncc(-c2ccc3nccc(-c4ccc(CN5CCN(CCO)CC5)cc4)c3c2)cc1NS(=O)(=O)c1ccc(F)cc1F | 24.8 nM | – | – | 21.2 nM | – | –
24 | 8.7 nM | – | COc1ncc(-c2ccc3nccc(-c4ccc(Cn5cncn5)cc4)c3c2)cc1NS(=O)(=O)c1ccc(F)cc1F | 16 nM | – | – | – | – | 18
25 | – | 1.1 nM | COc1ncc(-c2ccc3nccc(-c4ccc(CN5CCOCC5)cc4)c3c2)cc1NS(=O)(=O)c1ccc(F)cc1F | 70 nM | – | – | – | – | –
26 | 43.9 nM | – | COc1ncc(-c2ccc3nccc(-c4ccc(CN5CCN(C)CC5)cc4)c3c2)cc1NS(=O)(=O)c1ccc(F)cc1F | 13.3 nM | – | – | 336 nM | – | –
27 | 34.1 nM | – | COc1ncc(-c2ccc3nccc(-c4ccc(CN5CCCCC5)cc4)c3c2)cc1NS(=O)(=O)c1ccc(F)cc1F | 15.5 nM | – | – | 32 nM | – | –
28 | 51 nM | – | O=S(=O)(Nc1cc(-c2ccc3nccc(-c4ccc(CN5CCOCC5)cc4)c3c2)cnc1Cl)c1ccc(F)cc1F | 24 nM | 2310 nM | 2420 nM | – | – | –
29 | 5 nM | – | CCN(CC)Cc1ccc(-c2ccnc3ccc(-c4cnc(OC)c(NS(=O)(=O)c5ccc(F)cc5F)c4)cc23)cc1 | 22 to 22.1 nM | – | – | 4890 nM | – | –
30 | 2540 nM | – | COc1ncc(-c2ccc3nccc(-c4ccc(C)cc4)c3c2)cc1NS(=O)(=O)c1ccc(F)cc1F | 1240 nM | – | – | 67000 nM | – | –
31 | 14.2 nM | – | COc1ncc(-c2ccc3nccc(-c4ccc(Cn5ccnc5C)cc4)c3c2)cc1NS(=O)(=O)c1ccc(F)cc1F | 10.2 nM | – | – | 40 nM | – | –
32 | 4.7 nM | – | COc1ncc(-c2ccc3nccc(-c4ccc(CN(C)CCO)cc4)c3c2)cc1NS(=O)(=O)c1ccc(F)cc1F | 20 nM | – | – | – | – | >30
